ChEMBL document CHEMBL1136837, “Unified QSAR approach to antimicrobials. 4. Multi-target QSAR modeling and comparative multi-distance study of the giant components of antiviral drug-drug complex networks” (Bioorg Med Chem, 2009)
pIC50: −log10 of the molar value.

Tested on: Human immunodeficiency virus 1
Assay: Antiviral activity against HIV1
Format: functional, organism-based

Structure (SMILES) | pIC50
CO/N=C(\c1ccc(Br)cc1)C1CCN(C2(C)CCN(C(=O)c3c(C)cccc3O)CC2)CC1 | 8.40
CCO/N=C(\c1ccc(Br)cc1)C1CCN(C2(C)CCN(C(=O)c3c(C)cc(C)nc3O)CC2)CC1 | 8.19
CC(C)CN(C[C@@H](O)[C@H](Cc1ccccc1)NC(=O)O[C@H]1CCOC1)S(=O)(=O)c1ccc(N)cc1 | 8.70
C=C(C)[C@@H]1CC[C@]2(C(=O)NCCCCCCCC(=O)O)CC[C@]3(C)[C@H](CC[C@@H]4[C@@]5(C)CC[C@H](O)C(C)(C)[C@@H]5CC[C@]43C)[C@@H]12 | 6.00
C=C(C)[C@@H]1CC[C@]2(C(=O)NCCCCCCCC(=O)N[C@@H](CC(C)C)[C@H](O)CC(=O)O)CC[C@]3(C)[C@H](CC[C@@H]4[C@@]5(C)CC[C@H](O)C(C)(C)[C@@H]5CC[C@]43C)[C@@H]12 | 6.48
Nc1nc2c(ncn2[C@@H]2S[C@H](CO)C=C2F)c(=O)[nH]1 | 4.09
O=C(O)C(=O)CC(=O)c1cccc(Cc2ccccc2)c1 | 7.00
Cc1c(C(C)c2c(F)cccc2F)nc(SC2CCCC2)[nH]c1=O (stereo not drawn) | 8.30
C=C(C)[C@@H]1CC[C@]2(C(=O)N[C@@H](CC(C)C)C(=O)O)CC[C@]3(C)[C@H](CC[C@@H]4[C@@]5(C)CC[C@H](O)C(C)(C)[C@@H]5CC[C@]43C)[C@@H]12 | 5.49
COc1ccc(C(OCCn2c([N+](=O)[O-])cnc2C)c2ccccc2)cc1 (stereo not drawn) | 4.07
CC(c1cc(=O)[nH]c(SC2CCCC2)n1)c1c(F)cccc1F (stereo not drawn) | 7.52
Cc1c(Cc2c(F)cccc2F)nc(SC2CCCC2)[nH]c1=O | 7.10
C=C(C)[C@@H]1CC[C@]2(C(=O)NCCCCCCCCCCC(=O)N[C@@H](CC(C)C)C(=O)OC)CC[C@]3(C)[C@H](CC[C@@H]4[C@@]5(C)CC[C@H](O)C(C)(C)[C@@H]5CC[C@]43C)[C@@H]12 | 4.49
Cc1cn([C@@H]2S[C@H](CO)C=C2F)c(=O)nc1O | 4.03
Nc1nc(=O)n([C@@H]2S[C@H](CO)C=C2F)cc1F | 4.94
O=c1[nH]cnc2c1ncn2[C@@H]1S[C@H](CO)C=C1F | 4.36
COC(=O)c1[nH]c(-c2ccc3c(n2)C(=O)C(NC(C)=O)=CC3=O)c2nc3ccccc3c-2c1C | 4.82
Cc1c(Cc2c(F)cccc2F)nc(NC2CCCC2)[nH]c1=O | 7.52

Structure (SMILES) | pIC50
Cc1c(C(C)c2c(F)cccc2F)nc(NC2CCCC2)[nH]c1=O (stereo not drawn) | 7.46
Cc1ncc([N+](=O)[O-])n1CCCOC(c1ccccc1)c1ccccc1 | 4.46
Cc1ccc(S(=O)(=O)c2c(C(=O)NN)[nH]c3ccc(Cl)cc23)cc1 | 7.30
Cc1c(CO)c(=O)oc2c3c(ccc12)OC(C)(C)[C@H](OC(=O)C12CCC(C)(C(=O)O1)C2(C)C)[C@@H]3OC(=O)C12CCC(C)(C(=O)O1)C2(C)C (stereo partly drawn) | 4.60
Cc1ncc([N+](=O)[O-])n1CCOC(c1ccccc1)c1ccc([N+](=O)[O-])cc1 (stereo not drawn) | 5.30
C=C(C)[C@@H]1CC[C@]2(C(=O)N[C@@H](CC(C)C)C(=O)OC)CC[C@]3(C)[C@H](CC[C@@H]4[C@@]5(C)CC[C@H](OC(C)=O)C(C)(C)[C@@H]5CC[C@]43C)[C@@H]12 | 4.40
CC(=O)Oc1ccc(/C=C/C(=O)O[C@H](C(=O)O)[C@H](OC(=O)/C=C/c2ccc(OC(C)=O)c(OC(C)=O)c2)C(=O)O)cc1OC(C)=O | 4.81
CC(=O)OCc1cc2c(C)cc(=O)oc2c2c1OC(C)(C)[C@H](OC(=O)[C@@]13CC[C@](C)(C(=O)O1)C3(C)C)[C@@H]2OC(=O)[C@@]12CC[C@](C)(C(=O)O1)C2(C)C | 4.85
O=C(O)/C(O)=C/C(=O)c1c[nH]c2ccc(Cl)cc12 | 6.28
COc1ccc(Cn2nnnc2/C(O)=C/C(=O)c2c[nH]c3ccccc23)cc1 | 4.00
O=C(O)/C(O)=C/C(=O)c1cccc(C(=O)/C=C(\O)C(=O)O)c1 | 5.74
Cc1cc(=O)oc2c3c(c(CO)cc12)OC(C)(C)[C@H](OC(=O)[C@@]12CC[C@](C)(C(=O)O1)C2(C)C)[C@@H]3OC(=O)[C@@]12CC[C@](C)(C(=O)O1)C2(C)C | 4.82
Cc1c(CBr)c(=O)oc2c3c(ccc12)OC(C)(C)[C@H](OC(=O)[C@@]12CC[C@](C)(C(=O)O1)C2(C)C)[C@@H]3OC(=O)[C@@]12CC[C@](C)(C(=O)O1)C2(C)C | 4.68
Cc1cc(=O)oc2c3c(c(CBr)cc12)OC(C)(C)[C@H](OC(=O)[C@@]12CC[C@](C)(C(=O)O1)C2(C)C)[C@@H]3OC(=O)[C@@]12CC[C@](C)(C(=O)O1)C2(C)C | 4.86
CCN(CC)Cc1cc2ccc3c(c2oc1=O)[C@@H](OC(=O)[C@@]12CC[C@](C)(C(=O)O1)C2(C)C)[C@@H](OC(=O)[C@@]12CC[C@](C)(C(=O)O1)C2(C)C)C(C)(C)O3 | 4.85
O=C(O)C(=C\c1ccc(O)c(O)c1)/C(=C\c1ccc(O)c(O)c1)C(=O)O | 5.66
O=C(O)/C(O)=C/C(=O)c1ccc(C(=O)/C=C(\O)C(=O)O)cc1 | 5.89
CCOC(=O)c1[nH]c2c(Cl)cccc2c1S(=O)(=O)c1ccccc1N | 3.70

Further lines, results first:

pIC50 | Structure (SMILES)
8.00 | Cc1cccc(C)c1C(=O)N1CCC(C)(N2CCC(Cc3ccc(Br)cc3)CC2)CC1
7.64 | Cc1cccc(C)c1C(=O)N1CCC(C)(N2CCC(Cc3ccc(Cl)cc3)CC2)CC1
7.59 | COc1ccc(CC2CCN(C3(C)CCN(C(=O)c4c(C)cccc4C)CC3)CC2)cc1
6.34 | C=C(C)[C@@H]1CC[C@]2(C(=O)NCCCCCCCCCCC(=O)N[C@@H](CC(C)C)C(=O)O)CC[C@]3(C)[C@H](CC[C@@H]4[C@@]5(C)CC[C@H](O)C(C)(C)[C@@H]5CC[C@]43C)[C@@H]12
7.30 | O=C(c1cc(Cc2ccccc2)ccn1)c1ccc2cccnc2c1O
4.00 | O=c1nc(O)ccn1[C@@H]1S[C@H](CO)C=C1F
7.15 | O=c1cc(Cc2c(F)cccc2F)nc(NC2CCCC2)[nH]1
7.40 | CC(c1cc(=O)[nH]c(NC2CCCC2)n1)c1c(F)cccc1F (stereo not drawn)
6.15 | C=C(C)[C@@H]1CC[C@]2(C(=O)NCCCCCCCCCCC(=O)O)CC[C@]3(C)[C@H](CC[C@@H]4[C@@]5(C)CC[C@H](O)C(C)(C)[C@@H]5CC[C@]43C)[C@@H]12
4.01 | Cc1ncc([N+](=O)[O-])n1CCOC(c1ccccc1)c1ccc(Cl)c(Cl)c1 (stereo not drawn)
3.70 | CCOC(=O)c1[nH]c2ccccc2c1S(=O)(=O)c1cc(Cl)ccc1N
7.10 | O=c1cc(Cc2c(F)cccc2F)nc(SC2CCCC2)[nH]1
8.77 | CCO/N=C(\c1ccc(Br)cc1)C1CCN(C2(C)CCN(C(=O)c3c(C)ccc[n+]3[O-])CC2)CC1
5.00 | O=C(OC(C(=O)O)C(OC(=O)c1cccs1)C(=O)O)c1cccs1 (stereo not drawn)
9.07 | COc1ccnc2[nH]cc(C(=O)C(=O)N3CCN(C(=O)c4ccccc4)C[C@H]3C)c12
4.41 | C=C(C)[C@@H]1CC[C@]2(C(=O)NCCC(=O)N[C@@H](CC(C)C)C(=O)O)CC[C@]3(C)[C@H](CC[C@@H]4[C@@]5(C)CC[C@H](O)C(C)(C)[C@@H]5CC[C@]43C)[C@@H]12
5.86 | C=C(C)[C@@H]1CC[C@]2(C(=O)NCCCCCCCC(=O)N[C@@H](CC(C)C)C(=O)O)CC[C@]3(C)[C@H](CC[C@@H]4[C@@]5(C)CC[C@H](O)C(C)(C)[C@@H]5CC[C@]43C)[C@@H]12
4.88 | CC(=O)NC1=CC(=O)c2ccc(-c3[nH]c(C(=O)O)cc4c5ccccc5nc3-4)nc2C1=O
7.40 | O=C(c1cccc(Cc2ccccc2)c1)c1ncc2cccnc2c1O
3.70 | CC(=O)Nc1ccc(C(OCCn2c([N+](=O)[O-])cnc2C)c2ccccc2)cc1 (stereo not drawn)
4.85 | Cc1ncc([N+](=O)[O-])n1CCOC(c1ccccc1)c1cccc(-n2cccc2)c1 (stereo not drawn)

pIC50 | Structure (SMILES)
4.35 | Cc1ncc([N+](=O)[O-])n1CCOC(c1ccccc1)c1cc(Cl)cc(Cl)c1 (stereo not drawn)
5.15 | CCCCCCCCOC(=O)c1cc2c([nH]c3ccccc32)c(-c2ccc3c(n2)C(=O)C(NC(C)=O)=CC3=O)n1
8.85 | CCO/N=C(\c1ccc(Br)cc1)C1CCN(C2(C)CCN(C(=O)c3cccnc3C)CC2)CC1
4.55 | C=C(C)[C@@H]1CC[C@]2(C(=O)NCCCCCCCC(=O)N[C@@H](CC(C)C)[C@H](O)CC(=O)OCc3ccccc3)CC[C@]3(C)[C@H](CC[C@@H]4[C@@]5(C)CC[C@H](OC(C)=O)C(C)(C)[C@@H]5CC[C@]43C)[C@@H]12
5.84 | O=C(O)/C(O)=C/C(=O)c1c[nH]c2ccccc12
5.07 | Nc1nc(NC2CC2)c2ncn([C@H]3C=C[C@@H](CO)O3)c2n1
4.60 | O=C(O)/C(O)=C/C(=O)c1ccccc1
6.22 | Cc1ncc([N+](=O)[O-])n1CCOC(c1ccccc1)c1ccccc1[N+](=O)[O-] (stereo not drawn)
5.00 | O=C(OC(C(=O)O)C(OC(=O)c1ccsc1)C(=O)O)c1ccsc1 (stereo not drawn)
5.72 | O=C(/C=C(\O)c1nnn[nH]1)c1c[nH]c2ccccc12
4.40 | COc1ccc2[nH]cc(C(=O)/C=C(\O)c3nnn[nH]3)c2c1
6.46 | O=C(O)/C(O)=C/C(=O)c1cccc(OCc2ccccc2)c1
4.83 | CC(=O)OCc1c(C)c2ccc3c(c2oc1=O)[C@@H](OC(=O)[C@@]12CC[C@](C)(C(=O)O1)C2(C)C)[C@@H](OC(=O)[C@@]12CC[C@](C)(C(=O)O1)C2(C)C)C(C)(C)O3
4.00 | O=C(O)/C(O)=C/C(=O)c1ccnc2ccccc12
4.82 | Cc1cc(=O)oc2c3c(c(CN)cc12)OC(C)(C)[C@H](OC(=O)[C@@]12CC[C@](C)(C(=O)O1)C2(C)C)[C@@H]3OC(=O)[C@@]12CC[C@](C)(C(=O)O1)C2(C)C
4.81 | CC1(C)Oc2ccc3cc(CN)c(=O)oc3c2[C@@H](OC(=O)[C@@]23CC[C@](C)(C(=O)O2)C3(C)C)[C@H]1OC(=O)[C@@]12CC[C@](C)(C(=O)O1)C2(C)C
6.32 | O=C(O)/C(O)=C/C(=O)c1cc(OCc2ccccc2)cc(OCc2ccccc2)c1
5.74 | O=C(/C=C(\O)c1nnn[nH]1)c1c[nH]c2ccc(F)cc12
6.22 | CC(C)C[C@H](NC(=O)[C@H](Cc1ccccc1)C[C@H](O)[C@@H](CC(=O)OC(C)(C)C)Cc1ccccc1)C(=O)N[C@@H](Cc1ccccc1)C(N)=O
5.70 | NC(=O)O[C@@H]1Cc2ccccc2C1C1=C(O)[C@](Cc2ccccc2)(C[C@H](O)[C@H](Cc2ccccc2)NC(=O)O[C@H]2CCOC2)N=C1 (stereo partly drawn)
7.57 | Cc1c(O)cccc1C(=O)N[C@@H](CSc1ccccc1)[C@H](O)CN1C[C@H]2CCCC[C@H]2C[C@H]1C(=O)NC(C)(C)C
